Experimental data from the supplement of paper PMC10307832.

Experiments:
Assay in all cases: relative viability (nuclei count vs DMSO), 5 days (fraction); higher = more cells survive
ABC-1 = system: ABC-1
In short: (§1)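 Nuclei were stained with Hoechst during a one-step fixation (final 0.05% Triton X-100, 1% formaldehyde, 1 ug/ml Hoechst) carried out 5 days after dosing, then counted on 4× images. The cells, lung cancer lines in 1536-well plates, had been dosed by pin tool the day after seeding with one drug alone or a fixed anchor-drug dose plus five library-drug doses (not always all listed) in √10 steps. Relative viability is the nuclei count in treated wells divided by that in vehicle wells, and each value is the median of duplicate plates.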

COR-L23 = system: COR-L23
In short: as §1

EPLC-272H = system: EPLC-272H
In short: as §1

HARA = system: HARA
In short: as §1

HCC-15 = system: HCC-15
In short: as §1

HCC-78 = system: HCC-78
In short: as §1

LC-2-ad = system: LC-2-ad
In short: as §1

LU99A = system: LU99A
In short: as §1

NCI-H1651 = system: NCI-H1651
In short: as §1

NCI-H1915 = system: NCI-H1915
In short: as §1

NCI-H1993 = system: NCI-H1993
In short: as §1

With `Clc1ccc(Nc2nnc(Cc3ccncc3)c3ccccc23)cc1` [Vatalanib] + CS(=O)(=O)N1CCN(Cc2cc3nc(-c4cccc5[nH]ncc45)nc(N4CCOCC4)c3s2)CC1 [Pictilisib] (partner 1 µM) the relative viability (ABC-1; first compound 0.04 µM) was 0.888, the relative viability (ABC-1; first compound 0.1265 µM) was 0.78 and the relative viability (ABC-1; first compound 0.4 µM) was 0.877. For the same molecule, the relative viability (ABC-1; first compound 1.265 µM) was 0.71, the relative viability (ABC-1; first compound 4 µM) was 0.784 and the relative viability (COR-L23; first compound 0.04 µM) was 0.992. It also gave a relative viability (COR-L23; first compound 0.1265 µM) of 0.745, a relative viability (COR-L23; first compound 0.4 µM) of 0.854 and a relative viability (COR-L23; first compound 1.265 µM) of 0.758. It also gave a relative viability (COR-L23; first compound 4 µM) of 0.64, a relative viability (EPLC-272H; first compound 0.04 µM) of 0.35 and a relative viability (EPLC-272H; first compound 0.1265 µM) of 0.309. The relative viability (EPLC-272H; first compound 0.4 µM) was 0.151, the relative viability (EPLC-272H; first compound 1.265 µM) was 0.332 and the relative viability (EPLC-272H; first compound 4 µM) was 0.344. It also gave a relative viability (HARA; first compound 0.04 µM) of 0.555, a relative viability (HARA; first compound 0.1265 µM) of 0.414 and a relative viability (HARA; first compound 0.4 µM) of 0.351. For the same molecule, the relative viability (HARA; first compound 1.265 µM) was 0.454, the relative viability (HARA; first compound 4 µM) was 0.369 and the relative viability (HCC-15; first compound 0.04 µM) was 0.788. It also gave a relative viability (HCC-15; first compound 0.1265 µM) of 0.741, a relative viability (HCC-15; first compound 0.4 µM) of 0.799 and a relative viability (HCC-15; first compound 1.265 µM) of 0.716. For the same molecule, the relative viability (HCC-15; first compound 4 µM) was 0.786, the relative viability (HCC-78; first compound 0.04 µM) was 0.199 and the relative viability (HCC-78; first compound 0.1265 µM) was 0.172. The relative viability (HCC-78; first compound 0.4 µM) was 0.183, the relative viability (HCC-78; first compound 4 µM) was 0.196 and the relative viability (LC-2-ad; first compound 0.04 µM) was 0.574. For the same molecule, the relative viability (LC-2-ad; first compound 0.1265 µM) was 0.551, the relative viability (LC-2-ad; first compound 0.4 µM) was 0.559 and the relative viability (LC-2-ad; first compound 1.265 µM) was 0.509. The relative viability (LC-2-ad; first compound 4 µM) was 0.645, the relative viability (LU99A; first compound 0.04 µM) was 0.34 and the relative viability (LU99A; first compound 0.1265 µM) was 0.306. The relative viability (LU99A; first compound 0.4 µM) was 0.375, the relative viability (LU99A; first compound 1.265 µM) was 0.306 and the relative viability (LU99A; first compound 4 µM) was 0.312. For the same molecule, the relative viability (NCI-H1651; first compound 0.04 µM) was 0.646, the relative viability (NCI-H1651; first compound 0.1265 µM) was 0.276 and the relative viability (NCI-H1651; first compound 0.4 µM) was 0.642. The relative viability (NCI-H1651; first compound 1.265 µM) was 0.511, the relative viability (NCI-H1651; first compound 4 µM) was 0.594 and the relative viability (NCI-H1915; first compound 0.04 µM) was 1.12. For the same molecule, the relative viability (NCI-H1915; first compound 0.1265 µM) was 0.929, the relative viability (NCI-H1915; first compound 0.4 µM) was 0.972 and the relative viability (NCI-H1915; first compound 1.265 µM) was 0.863. It also gave a relative viability (NCI-H1915; first compound 4 µM) of 0.942, a relative viability (NCI-H1993; first compound 0.04 µM) of 0.782 and a relative viability (NCI-H1993; first compound 0.1265 µM) of 0.898. For the same molecule, the relative viability (NCI-H1993; first compound 0.4 µM) was 0.847, the relative viability (NCI-H1993; first compound 1.265 µM) was 0.816 and the relative viability (NCI-H1993; first compound 4 µM) was 0.887.
